Measured values taken from ChEMBL document CHEMBL3808315, “Discovery of Pyrazolopyridones as a Novel Class of Gyrase B Inhibitors Using Structure Guided Design” (ACS Med Chem Lett, 2016).
Converted amounts (≈) assume the structure as drawn.

Legend:
[1] = test system: Staphylococcus aureus; experiment: Antibacterial activity against methicillin-susceptible Staphylococcus aureus 42 incubated for 18 to 24 hrs by broth microdilution assay; assay type: functional
[2] = target: DNA gyrase subunit B (Staphylococcus aureus, UniProt P0A0K8); experiment: Inhibition of Staphylococcus aureus DNA gyraseB ATPase activity using linear pBR322 DNA substrate incubated for 30 mins by fluorescence polarization assay
[3] = test system: Staphylococcus aureus; experiment: Antibacterial activity against ciprofloxacin/methicillin-resistant Staphylococcus aureus 1721 incubated for 18 to 24 hrs by broth microdilution assay; assay type: functional
[4] = test system: Enterococcus faecium; experiment: Antibacterial activity Enterococcus faecium ATCC 6569 incubated for 18 to 24 hrs by broth microdilution assay; assay type: functional
[5] = test system: Staphylococcus aureus; experiment: Antibacterial activity against methicillin-resistant Staphylococcus aureus 1118 incubated for 18 to 24 hrs by broth microdilution assay; assay type: functional
[6] = target: DNA topoisomerase 4 subunit B (Staphylococcus aureus, UniProt P0C1S7); experiment: Inhibition of Staphylococcus aureus DNA parE ATPase activity incubated for 30 mins by fluorescence polarization assay
[7] = test system: Streptococcus pneumoniae; experiment: Antibacterial activity Streptococcus pneumoniae ATCC 6303 incubated for 18 to 24 hrs by broth microdilution assay; assay type: functional

Structure (SMILES) | MIC [1] [µg/mL] | IC50 [2] [nM] | also measured
O=c1ccc2c(-c3cnc(-c4cccnc4)s3)n[nH]c2[nH]1 | > 32 | 270 | 
Cc1cc(=O)[nH]c2[nH]nc(-c3cnc(-c4cccnc4)s3)c12 |  | 3250 | 
O=c1cc(-c2ccccc2)c2c(-c3cnc(-c4cccnc4)s3)n[nH]c2[nH]1 |  | 1320 | 
CCCn1c(=O)ccc2c(-c3cnc(-c4ccc(N(C)C)nc4)s3)n[nH]c21 | 0.5 (≈ 1.31 µM) | 15 | 
CCCn1c(=O)ccc2c(-c3ncc(-c4cccnc4)s3)n[nH]c21 | 4 (≈ 11.9 µM) | 9 | 
CCCn1c(=O)ccc2c(-c3nc(C(=O)OC)c(-c4cccnc4)s3)n[nH]c21 | 0.25 (≈ 0.632 µM) | 6 | 
CCCn1c(=O)ccc2c(-c3nc(C(=O)N(C)C)c(-c4cccnc4)s3)n[nH]c21 | 4 (≈ 9.79 µM) | 13 | 
CCCn1c(=O)ccc2c(-c3cnc(-c4ccc(C(C)C)nc4)s3)n[nH]c21 | 1 (≈ 2.64 µM) | 23 | 
CCCn1c(=O)ccc2c(-c3cnc(-c4ccc(C(=O)NCCN(CC)CC)nc4)s3)n[nH]c21 | 1 (≈ 2.09 µM) | < 8 | 
CCCn1c(=O)ccc2c(-c3cncs3)n[nH]c21 | > 32 | 279 | 
Cn1c(=O)ccc2c(-c3cnc(-c4cccnc4)s3)n[nH]c21 | > 32 | 51 | 
CCCn1c(=O)ccc2c(-c3cnc(-c4ccc(C(=O)OC)nc4)s3)n[nH]c21 | 0.5 (≈ 1.26 µM) | 15 | 
O=c1ccc2c(-c3cnc(-c4cccnc4)s3)n[nH]c2n1CCO | > 32 | 564 | 
CCn1c(=O)c(C)cc2c(-c3cnc(-c4cccnc4)s3)n[nH]c21 | 2 (≈ 5.93 µM) | 35 | 
CCCn1c(=O)ccc2c(-c3cnc(-c4ccc(C(=O)N(C)C)nc4)s3)n[nH]c21 | 2 (≈ 4.9 µM) | 8 | 
CCn1c(=O)ccc2c(-c3cnc(-c4cccnc4)s3)n[nH]c21 | 2 (≈ 6.18 µM) | 20 | MIC [3]: 4 µg/mL (≈ 12.4 µM); MIC [4]: 4 µg/mL (≈ 12.4 µM); MIC [5]: 2 µg/mL (≈ 6.18 µM); IC50 [6]: 746 nM; MIC [7]: 4 µg/mL (≈ 12.4 µM)
C=CCn1c(=O)ccc2c(-c3cnc(-c4cccnc4)s3)n[nH]c21 | 0.25 (≈ 0.745 µM) | 4 | 
CCCn1c(=O)ccc2c(-c3cnc(-c4ccc(CN5CCN(C)CC5)nc4)s3)n[nH]c21 | 4 (≈ 8.9 µM) | 10 | 
CCCn1c(=O)ccc2c(-c3cnc(-c4ccc(CN(CC)CC)nc4)s3)n[nH]c21 | 4 (≈ 9.47 µM) | 9 | 
CCCn1c(=O)ccc2c(-c3cnc(-c4ccc(CO)nc4)s3)n[nH]c21 | 0.25 (≈ 0.68 µM) | < 8 | 
CCCn1c(=O)ccc2c(-c3cnc(-c4ccc(CN5CCOCC5)nc4)s3)n[nH]c21 | 0.5 (≈ 1.15 µM) | < 8 | 
CCCn1c(=O)ccc2c(-c3cnc(-c4ccc(C)nc4)s3)n[nH]c21 | 0.25 (≈ 0.711 µM) | < 8 | 
CCCn1c(=O)ccc2c(-c3cnc(-c4ccc(C(=O)NCCN5CCOCC5)nc4)s3)n[nH]c21 | 2 (≈ 4.05 µM) | 13 | 
CCCn1c(=O)ccc2c(C3CCN(c4nc(C(=O)O)c(C)s4)CC3)n[nH]c21 | > 32 | 192 | 
CCn1c(=O)c(CO)cc2c(-c3cnc(-c4cccnc4)s3)n[nH]c21 | > 32 | 202 | 
CCCn1c(=O)ccc2c(-c3cnc(-c4ccc(N5CCN(C)CC5)nc4)s3)n[nH]c21 | 2 (≈ 4.59 µM) | 8 | 
CCn1c(=O)c(C(=O)NC)cc2c(-c3cnc(-c4cccnc4)s3)n[nH]c21 | > 32 | 3350 | 
CCCn1c(=O)ccc2c(-c3cnc(-c4cccnc4)s3)n[nH]c21 | 0.06 (≈ 0.178 µM) | 6 | MIC [3]: 0.06 µg/mL (≈ 0.178 µM); MIC [4]: 0.125 µg/mL (≈ 0.37 µM); MIC [5]: 0.06 µg/mL (≈ 0.178 µM); IC50 [6]: 183 nM; MIC [7]: 0.25 µg/mL (≈ 0.741 µM)
COc1c(N2C[C@@H]3CCCN[C@@H]3C2)c(F)cc2c(=O)c(C(=O)O)cn(C3CC3)c12 [MOXIFLOXACIN] | 0.06 (≈ 0.149 µM) |  | 
